This note sets out measurements from patent US8686178B2, “Derivative of 18β-glycyrrhetinic acid apt to suppress cancer cells” (Kaohsiung Medical University, priority 2011, dated 2014).

Some results are limits rather than exact numbers.

The subject of series [1] is NTUB1 cells. Put plainly: Trial (F): mitochondrial membrane potential (JC-1) by flow cytometry. It counts as cell-based, human. The note with it: 10 μM, 30 minutes, JC-1, NTUB1. As to the method: In trial (F), mitochondrial membrane potential (MMP) in NTUB1 cells is measured according to a journal article published by Martin et al., at 2009 in PloS one, in which a dysfunction of the mitochondria caused by ROS induced MPP decrease is supposed.
Referring to TABLE 6, the NTUB1 cells at a density of 3×10^5 cells/ml are prepared and assigned into 5 groups, including F1 to F5, to incubate in 10 μM carbonyl cyanide 3-chlorophenylhydrazone (CCCP), and 10, 25 and 50 μM of 25 respectively, for 30 minutes, followed by adding 1 μM of 5,5′,6,6′-tetrachloro-1,1′,3,3′-tetraethylbenzimidaolylcarbocyanine iodide (JC-1) (Molecular Probes, Eugene, Oreg., USA) in each group. Then, the NTUB1 cells in each group are washed with PBS buffer for 3 times, collected in PBS/2% BSA, washed twice by centrifugating at 800 g, 5 minutes and resuspending in 0.3 mL PBS/2% BSA, and finally analyzed by a FACSCalibur flow cytometer (Becton Dickinson), with the FACSCalibur flow cytometer determining and calculating a ratio of JC-1 aggregates (red fluorescence) to JC-1 monomers (green fluorescence) based on levels of MMP in each group.
A general note: Flow cytometry measures light scatter and fluorescence of single cells or particles in a stream.

For series [2], the system named is NTUB1 cells. Put plainly: Trial (C): synergy with cisplatin, MTT assay. It is filed as cell-based, human. The conditions noted are these: NTUB1, 72 hours; for cytotoxic effect applied individually (FIGS. 7, 8): single agent; for synergy with cisplatin (FIGS. 7, 8): 1-50 μM compound with 5/10 μM cisplatin. As to the method:
Oncol: Semin. Orig. Invest. by maintaining the NTUB1 cells in various condition of medium (with reference to TABLE 3) at 37° C. for 72 hours, and determining cytotoxicities of each medium via MTT assay. In the trial (C), the viability rates of NTUB1 cells […] are also determined by the absorbance spectrometry at 540 nm with a MRX (DYNEXCO) microplate according to trial (B).
In general terms: Formazan colour is commonly taken as a measure of viable cells.

Series [3] deals with human bladder cancer cell line NTUB1. Put plainly: Trial (A): cytotoxic effect, IC50 by median-effect analysis. It counts as cell-based. The conditions noted are these: NTUB1 cells; for cytotoxic effect against cancer cell: with reference to TABLE 2; for IC50: mean ± SD. The text has this:
(§1) For the sake of proving therapeutic effects of the derivatives of 18β-glycyrrhetinic acid of the present invention, including 10, 11, 13-17 and 21-25, in treating of cancer, human bladder cancer cell line NTUB1, human prostate cancer cell line PC3 cataloged as CRL-1435 (reference to J. Formosan Med. Assoc. 1992; 91:608-13), and immortalized normal human urothelial cells SV-HUC1 cataloged as CRL-9520 are purchased from American Type Culture Collection (ATCC; Rockville, USA) and maintained in a culturing medium respectively till at a preferable density to carry out a serial of trials (comprising trial A to G) for evaluating cytotoxicities of the derivatives of 18β-glycyrrhetinic acid against cancer cells, and mechanisms thereof.
In the present invention, the NTUB1 and the PC3 is but not limit to be maintained in RPMI 1640 medium supplemented 10% fetal bovine serum (FBS), 100 unit/mL penicillin-G, 100 μg/mL streptomycin, and 2 mM L-glutamine, yet the SV-HUC1 is maintained in F12 medium supplemented with 10% fetal bovine serum (FBS), 100 unit/mL penicillin-G, 100 μg/mL streptomycin, and 2 mM L-glutamine, culturing at 37° C. in a humidified atmosphere containing 5% CO2 till at a density of 70% per well, followed by repeatedly suspending cells in each well with an ethylene diamine tetra-acetic acid buffer (EDTA buffer; Merck) and counting cell numbers.
In the present invention, the IC50 values of each group are presented as mean±standard deviation (SD).

Series [4] relates to immortalized normal human urothelial cells SV-HUC1. The experiment in a line: Trial (B): MTT assay on normal cells, 72 hours. The conditions noted are these: 0-50 μM. It counts as cell-based.
Text: as §1, with “thereof. […]” for “thereof.”
(§2) In trial (B), the cell lines of NTUB1, PC3, and SV-HUC1 are prepared in 96-well plates and co-incubated with the compounds 21, 23 or 25 in various concentrations of 0, 0.3, 1, 3, 5, 10, 30 and 50 μM, to analyze cytotoxic effects against either cancer cell or normal cells via a modified 3-[4,5-dimethylthiazol-2-yl]-2,5-diphenyltetrazolium bromide (MTT, Sigma Chemical Co.) assay. […] At co-incubation, 50 μL of MTT (2 mg/mL in PB) is added to each well to react for 3 hours, followed by centrifugating the 96-well plates at 1000 g for 10 min to remove supernatant, adding 150 μL DMSO in each well of the 96-well plates, and determining viability rates of the NTUB1, PC3, and SV-HUC1 cells separately by an absorbance spectrometry at 540 nm with a MRX (DYNEXCO) microplate reader.

The next series has as its system NTUB1. The experiment in a line: Trial (B): MTT cytotoxicity assay, 72 hours. It counts as cell-based, human. The note with it: 0-50 μM.
Text: as §1, with “thereof. […]” for “thereof.”
as §2

Series [5] relates to human prostate cancer cell line PC3. The experiment in a line: Trial (B): MTT cytotoxicity assay, 72 hours. It counts as cell-based. The conditions noted are these: 0-50 μM.
Text: as §1, with “thereof. […]” for “thereof.”
as §2

Series [6] relates to NTUB1 cells. Put plainly: Trial (E): cell cycle progression by flow cytometry (propidium iodide). It counts as cell-based, human. Set-up: Sub-G1 / G1: unit not given here. The conditions noted are these: 24 hours, NTUB1. The procedure:
In order to determine a relationship between the derivatives of 18β-glycyrrhetinic acid of the present invention and cell cycle arrest, trial (E) is carried out by analyzing cell cycle progression by flow cytometry. […] After that, cell cycle progression of each group is determined respectively by incubating with 50 μg/mL propidium iodide (Sigma, Co) and 50 μg/mL RNase A (Sigma, Co) in PBS at room temperature for 30 min, and analyzing by FACScan flow cytometer and Cell Quest sofeware.

Series [7] deals with NTUB1 cells. Put plainly: Trial (D): production of reactive oxygen species by flow cytometry (DCF). It counts as cell-based, human. The conditions noted are these: 20 μM, 24 hours. The procedure:
In trial (D), production of reactive oxygen species (ROS) is analyzed by flow cytometry, since the levels of ROS play an important role in apoptosis.
Referring to TABLE 4, the NTUB1 cells at a density of 8×10^5 cells/ml are prepared and assigned into 5 groups, including D1 to D5, to incubate in various medium for 24 hours. Next, 10 μM of 2,7-dichlorodihydrofluorescein diacetate (H2DCFHDA; Molecular Probes, Eugene, Oreg.) is added to the NTUB1 cells of each group 30 minutes prior than harvest, followed by collecting the NTUB1 cells of each group respectively and washing with PBS buffer. With such arrangement, the 2,7-dichlorodihydrofluorescein diacetate will penetrate into cells, interact with esterase, and degrade to 2,7-dichlorofluorescein (DCF) having green fluorescein, which can be determined by flow cytometer. In trial (D), green fluorescence of intracellular DCF in each group are analyzed immediately by FACScan flow cytometer (Becton Dickinson) at a wavelength of 525 nm.

For `N#CC(C#N)=NNc1cccc(Cl)c1` [CCCP, carbonyl cyanide 3-chlorophenylhydrazone, reference compound], the “R1 (%)” value with NTUB1 cells [1] stood at 52.06%.

As usually defined, the IC50 is the concentration at which inhibition is half-maximal. Turning to `C=C(C)[C@@H]1CC[C@]2(C)[C@H](C(=O)C=C3[C@@H]4C[C@@](C)(C(=O)OCc5ccccc5)CC[C@]4(C)CC[C@]32C)[C@@]1(C)CCC(=O)OC` [Compound 12, 3,4-seco-11-oxo-18β-olean-4(23), 12-dien-3,30-dioic acid 3-methyl-30-benzyl ester], in the series with NTUB1 cells [2], the “cytotoxic effect applied individually (FIGS. 7, 8)” value is “cytotoxic effects against to cancer cells” and the “synergy with cisplatin (FIGS. 7, 8)” value was “dramatic synergy”. In series [3], the “cytotoxic effect against cancer cell” value is “significantly suppress the growth of cancer cells with a lower concentrate” and the IC50 came out at 9.41 ± 2.72 µM.

`CC(C)NC(=O)C1(C)CCC2(C)CCC3(C)C(=CC(=O)C4C5(C)CCC(=O)OC(C)(C)C5CCC43C)C2C1` (centres unmarked) [Compound 18] showed an IC50 in series [3] of 25.7 ± 1.81 µM.

For the molecule `C=C(C)[C@@H]1CC[C@]2(C)[C@H](C(=O)C=C3[C@@H]4C[C@@](C)(C(=O)NC(C)C)CC[C@]4(C)CC[C@]32C)[C@@]1(C)CCC(=O)O` [Compound 19], in series [3], the IC50 was 17.5 ± 2.11 µM.

As to `C=C(C)[C@@H]1CC[C@]2(C)[C@H](C(=O)C=C3[C@@H]4C[C@@](C)(C(=O)NC(C)C)CC[C@]4(C)CC[C@]32C)[C@@]1(C)CCC(=O)OC` [Compound 20, 30-Isopropylcarbamoyl-11-oxo-18β-3,4-seco-olean-4(23),12-diene 3-methyl ester], in the series on NTUB1 cells [2], the “cytotoxic effect applied individually (FIGS. 7, 8)” value is recorded as “cytotoxic effects against to cancer cells” and the “synergy with cisplatin (FIGS. 7, 8)” value is reported as “dramatic synergy”. In addition, the IC50 in series [3] was 13.1 ± 5.27 µM.

For `C=C(C)[C@@H]1CC[C@]2(C)[C@H](C(=O)C=C3[C@@H]4C[C@@](C)(C(=O)NC(C)C)CC[C@]4(C)CC[C@]32C)[C@@]1(C)CCC(=O)OCC` [Compound 21, 30-isopropyl carbamoyl-11-oxo-18β-3,4-seco-olean-4(23),12-dien 3-ethyl ester], in series [4], the “effect on growth of normal cells (survival ratio, FIGS. 4-6)” value is “enhance the growth of SV-HUC1 cells”. Moreover, in the series with NTUB1, the “cytotoxic effect (survival ratio, FIGS. 4-6)” value is “cytotoxic effects against to the cancer cells in a dose-dependent manner, particularly in against to NTUB1 cell”. Moreover, the “cytotoxic effect (survival ratio, FIGS. 4-6)” value in series [5] is “cytotoxic effects against to the cancer cells in a dose-dependent manner”. Besides, in series [3], the “cytotoxic effect against cancer cell” value was “significantly suppress the growth of cancer cells with a lower concentrate” and the IC50 came out at 19.4 ± 19.2 µM.

As for `C=C(C)[C@@H]1CC[C@]2(C)[C@H](C(=O)C=C3[C@@H]4C[C@@](C)(C(=O)NC(C)C)CC[C@]4(C)CC[C@]32C)[C@@]1(C)CCC(=O)OC(C)C` [Compound 22, 30-isopropyl carbamoyl-11-oxo-18β-3,4-seco-olean-4(23),12-dien 3-isopropyl ester], the IC50 in series [3] came to 29.2 ± 26.6 µM.

In the case of `C=C(C)[C@@H]1CC[C@]2(C)[C@H](C(=O)C=C3[C@@H]4C[C@@](C)(C(=O)NC(C)C)CC[C@]4(C)CC[C@]32C)[C@@]1(C)CCC(=O)NCC` [Compound 23], the “effect on growth of normal cells (survival ratio, FIGS. 4-6)” value in series [4] was “enhance the growth of SV-HUC1 cells”. For the same molecule, the “cytotoxic effect (survival ratio, FIGS. 4-6)” value in the series with NTUB1 is “cytotoxic effects against to the cancer cells in a dose-dependent manner, particularly in against to NTUB1 cell”; in series [5] it was “cytotoxic effects against to the cancer cells in a dose-dependent manner”. In series [3], the “cytotoxic effect against cancer cell” value is given as “significantly suppress the growth of cancer cells with a lower concentrate”. Besides, the IC50 in series [3] came to 12.8 ± 2.1 µM.

In series [3], `C=C(C)[C@@H]1CC[C@]2(C)[C@H](C(=O)C=C3[C@@H]4C[C@@](C)(C(=O)NC(C)C)CC[C@]4(C)CC[C@]32C)[C@@]1(C)CCC(=O)NCCC` [Compound 24, 30-isopropyl carbamoyl-11-oxo-18β-3,4-seco-olean-4(23), 12-dien 3-propyl carbamate] returned an IC50 of more than 50 µM.

`CC1(C(=O)Nc2ccccc2)CCC2(C)CCC3(C)C(=CC(=O)C4C5(C)CCC(=O)OC(C)(C)C5CCC43C)C2C1` (centres unmarked) [Compound 26] displayed an IC50 in series [3] of 16 ± 5.3 µM.

Consider `C=C(C)[C@@H]1CC[C@]2(C)[C@H](C(=O)C=C3[C@@H]4C[C@@](C)(C(=O)Nc5ccccc5)CC[C@]4(C)CC[C@]32C)[C@@]1(C)CCC(=O)O` [Compound 27], for which, in series [3], the “cytotoxic effect against cancer cell” value is recorded as “significantly suppress the growth of cancer cells with a lower concentrate” and the 50% inhibitory concentration (IC50) came to 3.31 ± 0.61 µM.

In the series on NTUB1 cells [6] (50 μM), `OO` [Compound H2O2, H2O2, reference compound] showed a G1 of 27.15, a G2/M of 20.18, an S of 23.84 and a Sub-G1 of 9.48.

For `N.N.[Cl][Pt][Cl]` [cisplatin, cis-diamminedichloroplatinum II, reference compound], the “ROS (%)” value in the series with NTUB1 cells [7] is reported as 63.1%. In series [3], this molecule yielded a 50% inhibitory concentration (IC50) of 3.27 ± 0.1 µM. Besides, in the series with NTUB1 cells [6] (20 μM), the G1 is listed as 60.91, the G2/M is 6.65, the S amounted to 22.09 and the Sub-G1 is recorded as 10.35.
